Test results reported in patent US12029755B2, “Carbon monoxide-based therapies and implantable devices for the treatment of vascular disease” (THE REGENTS OF THE UNIVERSITY OF MICHIGAN, priority 2017, dated 2024).

Tests used:
WT mice = test: IVC ligation (stasis) model of venous thrombosis with inhaled CO exposure; format: in vivo, mouse; conditions: for Venous stasis thrombus burden / Vessel wall leukocyte infiltration: 7 d inhaled CO, 250 ppm for 1 hour twice daily, after IVC ligation, vs normoxia-treated controls
Protocol: Carbon monoxide was focused on for these studies because it is an end product from heme degradation by HO-1.
The effect of CO on large vein thrombogenesis was determined. WT mice undergo venous thrombus induction by stasis or stenosis, followed by exposure to inhaled CO (250 ppm) for one hour twice daily. […] Thrombus burden was assessed as in SA1 indirectly (ultrasound, FIG. 6) and directly (thrombus weight/length), at pre-determined time points after surgery (1 d, 2 d, 7 d, 10 d, 21 d).
The mouse makes an excellent animal model of stasis-induced venous thrombosis. Mice, weighing 20 to 30 g, were anesthetized with an inhalation mixture of isoflurane gas (1.5% to 2%) and oxygen (100%), placed in dorsal recumbency and aseptically prepped for surgery. A midline laparotomy was made, the small bowel was exteriorized from the body cavity and moved slightly to the left of the animal, and then the IVC was directly approached by careful blunt dissection. Blunt dissection was facilitated using a sterile applicator swab and extra delicate half curved tissue forceps. Care was taken in handling mouse tissue due to its fragility. Periodically, the exteriorized bowel was moistened with sterile saline to prevent its desiccation. For consistent thrombus formation (90 to 95%), ligation of the IVC with a 7-0 prolene below the renal veins, ligation of an occasional side venous branch and cauterization of a deep posterior branch was performed if indicated to account for normal variation in anatomy. The laparotomy incision was closed in a 2-layer fashion using a 5-0 nonreactive suture material and VetBond glue (3M). Harvest of the IVC was performed at pre-determined time points.
Inhaled Carbon monoxide exposure: Mice were randomly assigned to the normoxia or carbon monoxide exposure group prior to IVC ligation or stenosis surgery. The carbon monoxide group was exposed to 250 ppm CO at a flow rate of 10 L/min for 1 h twice daily. One cohort of mice received “pre-conditioning” with CO exposure 1 day prior to surgery. To achieve 75% O2, 100% O2 is delivered at a flow rate of 0.5 l/min into a custom-made 1.5-m^3 plastic chamber. Oxygen concentrations were monitored continuously with an oxygen analyzer (Neutronics, Exton, PA), gas lines were filtered with activated charcoal to remove excess ammonia, and calcium chloride used to maintain CO2 levels below 0.05%. A CO analyzer (Ntron model 1100; Neutronics, Exton, PA) were used to monitor CO levels continuously in the chamber.

humans = conditions: dose up to 500 ppm, clinical trials; cited from earlier work
[1] = system: heme oxygenase-1 expression; test: HO-1 expression in sham-operated WT IVC by quantitative RT-PCR and immunoblotting; format: in vivo, mouse; conditions: CO exposure (inhaled CO or CORM), sham-operated WT IVC compared with normoxic controls
Protocol: Also, it was determined that CO exposure (inhaled CO or CORM) induces heme oxygenase-1 expression in sham-operated WT IVC compared with normoxic controls by quantitative RT-PCR and immunoblotting. Therefore, inhaled CO can trigger a venous anti-inflammatory and anti-thrombotic program. Also, whether CO or CORM treatment alone is sufficient to rescue HO-1^−/− mice from exaggerated early venous thrombosis was assessed. HO-1^−/− mice undergo venous stasis or stenosis thrombus induction, followed by CORM or inhaled CO treatment. Thrombus size was measured at the time of expected peak thrombus burden.

C57B/6J mice = test: IVC flow-restriction (stenosis) model of venous thrombosis; format: in vivo, mouse
Protocol: To determine whether carbon monoxide-releasing molecules can be used as a therapeutic in prevention of flow-restriction mediated venous thrombosis (a model of venous thrombosis that mimics human venous clot, unlike IVC ligation), mice were injected with CORM-3 (Sigma SML0496, 10 mg/kg intraperitoneal injection) and subjected to IVC flow-restriction to induce thrombosis. Remarkably, CORM-3 treated mice developed no venous thrombus (0%, n=5) compared with controls (48%, n=21. P=0.001).
“Flow restriction” (Stenosis) thrombosis model: Partial IVC stenosis Model of Venous Thrombosis (FIG. 5) This model is a “flow-restriction” (or “stenosis) model in which the lumen is reduced by ˜90%. This model invokes disturbed flow at the stenosis site as a model for turbulent flow in venous valve pockets, where thrombi frequently develop. It also has applications to human venous “impingement” conditions, such as May Thurner syndrome. Mice, weighing 20 to 30 g, were anesthetized using an inhalation mixture of isoflurane gas (1.5%-2%) and oxygen (100%), placed in dorsal recumbence, and the IVC was approached directly via a midline laparotomy utilizing aseptic technique. A 7-0 Prolene suture (Ethicon, Inc. Somerville, NJ) was fastened around the IVC over a blunted 30-gauge needle (which serves as a spacer). […] Mice were humanely euthanized and thrombus formation assessed 2-7 days after laparotomy.

| Structure (SMILES) | Venous stasis thrombus burden (WT mice) | Vessel wall leukocyte infiltration (WT mice) | Venous stasis thrombus burden (WT mice; listed as carbon monoxide) | Vessel wall leukocyte infiltration (WT mice; listed as carbon monoxide) | Thrombus size at 7 days (WT mice; WT mice, thrombus induction by stasis or stenosis, inhaled CO 250 ppm one hour twice daily) | Safety of inhaled CO dose (humans) | Heme oxygenase-1 expression in IVC [1] | Protection from venous thrombus compared with controls (C57B/6J mice; C57B/6J mice treated with CORM-3, VT induction by IVC flow-restriction) | Frequency of clot (venous thrombus) (C57B/6J mice; CORM-3 10 mg/kg intraperitoneal injection, IVC flow-restriction, n=5, controls 48% (n=21)) [%] |
| --- | --- | --- | --- | --- | --- | --- | --- | --- | --- |
| [C-]#[O+] [CO, carbon monoxide] | reduced | reduced | profound reduction | profound reduction | robust reduction | safe | induces |  |  |
| NCC(=O)O.[CH+]=O.[CH+]=O.[CH+]=O.[Cl][Ru] [CORM-3, tricarbonylchloro(glycinato)ruthenium (II)] |  |  |  |  |  |  |  | protected from venous thrombus | 0 |
